Columns and labels:
breast cancer cell lines = assay: Alamar Blue cytotoxicity, averaged across cell lines or cell line not stated; type: cell-based, human; details: averaged across cell lines
Protocol: (§1) Human breast carcinoma cell line lines; SKBR-3, BT20, MB-MDA-468, MB-MDA-453, MB-MDA-231, and MCF-7 and human cancer cell lines Calu-6, Hela, HCT-116, HT-29, and A-431, obtained from ATCC (Manassas, Va.), were cultured in Dulbecco's Modified Eagle's Medium (DMEM-Sigma D-564R) supplemented with 10% Fetal Calf Serum (heat-inactivated) and antibiotics (Antibiotic Antimycotic Solution 100×, Sigma A9909). Breast cancer cell lines were chosen based on their varying amount of Epidermal Growth Factor Receptors (EGFR). Cells were routinely propagated and cultured at 37° C. in a 100% relative humidified atmosphere consisting of 5% C02 and 95% air. Cells were trypsinized with 0.05% Trypsin-0.2% EDTA (w/v) solution. All experiments were repeated at least three times.
Cells were seeded onto a standard 96-well microtiter plate at a density of 2×10^4 cells/well in 100-μl tissue culture medium. […] Each well was evaluated at seven 10-fold dilutions starting from a high of 1000 ppm. […] Following a 48-h incubation period, extracted cells were evaluated using Alamar Blue, a fluorometric/colorimetric assay that measures cell proliferation by relying on the cells metabolic activity. […] Data were analyzed immediately by visualizing color densities and/or with a standard spectrophotometer at 540 nm.

cancer cell lines = assay: Sulforhodamine B (SRB) assay, cell line not stated / average of all cell lines; type: cell-based, human; details: highest concentration; positive control averaged on all cell lines
Protocol: as §1
In addition to Alamar blue, Sulforhodamine B Assay (SRB) was used to determine inhibition by bound protein. Individual cell lines were seeded at varying cell densities as determined by growth rate. […] The absorbance of stained protein was read with an automated 96-well microtiter ELISA plate reader (SAFIRE) at 540 nm. Using absorbance measurement [time zero. (Tz)—control growth, and growth at each drug concentration level (Ti)], the percentage growth is calculated at each of the drug concentrations. Percent growth inhibition is calculated as: [(Ti−Tz)/Tz]×100 for concentration for which Ti<Tz.

[1] = tested on: Human breast cancer cell line MB-MDA-231; assay: Annexin V FITC / PI apoptosis detection by flow cytometry, 24 h; type: cell-based
Protocol: Human breast cancer cell line MB-MDA-231 were cultured in Dulbecco's Modified Eagle's medium (DMEM-Sigma, D-5648), supplemented with 10% (heat-inactivated) Fetal Bovine Serum (Atlanta Biologicals, Inc.) and Antibiotic Solution, 100× (Sigma A-9909). Cells were gown at 37° C., at 5-7% CO2, and 95% humidity and were obtained from the American Type Culture Collection (ATCC). Cells were trypsinized with 0.05% Trypsin-0.2% EDTA (w/v) solution (Invitrogen Corporation, Carlsbad, Calif.).
The induction of apoptosis in MB-MDA-231 was analyzed using a well-validated Annexin V FITC apoptosis detection kit (Calbiochem), Darzynkiewicz, 1998. The phosphatidylserine (PS)-specific dye Annexin-V is used to detect apoptotic-specific changes to the organization of phospholipids leading to exposure of PS on the cell surface that precedes nuclear breakdown, DNA fragmentation, and the appearance of most apoptosis-associated molecules. For these studies cells were seeded at 25×10^4 cells/1.5 ml in a 24 well microtiter plate. Cells were allowed to adhere to plates for 24 h, and then exposed to lignans of the present invention at 5-fold dilutions of 30 μl, 6 μl, and 1.2 μl per well for 24 h. Test compounds were mixed in solution using DMSO as vehicle (10 mg extract/1 ml DMSO). Camptothecin was used as a positive control. Following the incubation period 700 μl of suspended cells were transferred to 15 ml conical tubes. Cells that remained adhered to the 24-well plates were gently washed with PBS (137 mM NaCl, 2.7 mM KCL, 4.3 mM Na2HPO4-7H2O, 1.4 mM KH2PO4, adjusted to pH 7.4), trypsinized with 1 ml of solution (0.05% Trypsin—0.2% EDTA [w/v]), and resuspended with the suspended cells/media collected in the 15 ml conical tubes from the previous step. 10 μl of media-binding reagent and 1.25 μl Annexin V-FITC was added to the 15 ml conical tubes containing both the 700 μl of suspended cells and the resuspended cells and incubated at room temperature for 15 min, at 18-24° C., in the dark. Tubes were centrifuged for 5 minutes at 1000×g at room temperature. Media was removed and cells were gently resuspended in 0.5 ml cold 1×binding buffer (dilution; 5× Binding Buffer concentrate 1:5 with dH2O) and placed on ice. 10 μl of propidium iodide was added to each tube. Cells were placed on ice away from light and analyzed immediately by flow cytometry. The dual fluorescence emissions of the respective dyes were detected in cell preparations on a BD-Biosciences FACS Aria high-speed flow cytometer/cell sorter utilizing a quartz cuvette for interrogation. To quantify the Annexin V (FL1 at 518 nm) and propidium iodide (620 nm) signals, apoptosis-induced cells (CPT) stained with FITC only and apoptosis-induced cells (CPT) labeled with only propidium iodide were utilized. Necessary adjustments were made to minimize overlap between these two measurements. Typically, 10,000-20,000 cells were scored for each sample and classified as either viable, early apoptotic, or late apoptotic or necrotic. All experiments were repeated at least three times, each in duplicate.
The principal of the Annexin V/FITC assay is that, Annexin V, an anticoagulant protein, preferentially binds negatively charged phospholipids. Early in the apoptotic process, phospholipid asymmetry is disrupted leading to the exposure of phosphatidylserine (PS) on the outer leaflet of the cytoplasmic membrane. Annexin V binds to the negatively charged calcium-dependent PS. Conjugating FITC to Annexin V with simultaneous propidium iodide (PI) staining allows bivariate analysis of intact cells. Live, healthy cells are double negative, FITC (−)/PI (−), and are seen in the lower left quadrant [A3] of FACS cytograms. Cells that are FITC (+)/PI (−) [A4] are early apoptotic. Cell populations that are advanced apoptotic or necrotic are FITC (+)/PI (+) are located in quadrant [A2]. […]

cell line MD-MBA-231 = assay: Cell cycle analysis by DNA content (hypotonic PI staining, flow cytometry); type: cell-based, human; details: 1.2, 6.0, 30.0 ppm; 24 h
Protocol: Twenty-four hours after exposure to compounds, 25×10^4 cells in 1.5 ml cells were simply re-suspended following either the Annexin V/FITC assay or the trypsin procedures. Cells were centrifuged at 1000-x g at room temperature and washed in 0.5 ml of hypotonic staining solution. Cells were kept a minimum of 30 min. at 4° C. in the dark. Samples were usually analyzed by flow cytometry on the same day or at 24 hrs. Resulting DNA distributions were analyzed for the proportion of cells in apoptosis and in G0/G1, S, and G2/M phases of the cell cycle. Singlet events were gated and 10,000-20,000 events were acquired within the gated region. All experiments were repeated at least three times, each in duplicate.
The cell cycle comprises steps that regulate the correct temporal sequence of events that control the growth, reproduction and differentiation of cells. The cell cycle consists of 4 phases: G0/G1, S (DNA synthesis), G2, and M (mitosis). In addition, checkpoints located in the cell cycle transition ensure that cell growth and division occur in response to appropriate signals and environment. When proliferating, if cells are subjected to DNA damage the cell cycle temporarily pauses either at G1, S or G2 phase. Arrest at these checkpoints prevents DNA replication and mitosis in the presence of unrepaired DNA damage and presumably allows time for DNA repair to occur. The proportion of cells that arrest in G1, S or G2 after damage depends on cell type, growth conditions, type of damage and the checkpoints operative in the cells. Shifts in the redistribution of phases of the cell cycle in response to various stimuli can be readily assessed by flow cytometry. DNA content analysis with the use of PI is one of the most common assays. The use of intercalating dyes to measure DNA content are the most common and are usually sufficient to determine relative shifts in the phases of the cell cycle. The hypotonic solution lyses the plasma membrane and prevents many of the aggregate problems associated with fixed cells. Propidium Iodide(PI) passes through permeabilized cell membranes and intercalates with cellular DNA. Therefore, the intensity of the PI signal is directly proportional to DNA content. DNA content experiments determine the percent induction of apoptosis and relative distribution of the cell cycle phases.
The percent of apoptotic cells (cells with fractional DNA content; sub G1 cells) were established by estimating the percentage of events showing up in sub G0. The Sub-G1 method relies on the fact that after DNA fragmentation, there are small fragments of DNA that may be eluted. However in order to be seen in the Sub G1 area, a cell must have lost enough DNA to appear there; so if cells enter apoptosis from the S or G2/M phase of the cell cycle or if there is an aneuploid population undergoing apoptosis, they may not appear in the Sub G1 peak. The number of events in sub G1 (number of nuclear fragments) provides no information on the # of cells undergoing apoptosis.

## O=c1[nH]cc(F)c(=O)[nH]1 [5-fluorouracil, 5-Fluorouracil]
Breast cancer cell lines
  concentration of cell death / greatest inhibition, positive controls: cell death at the same lower limits as cell lines BT20 and MB-MDA-453
Cancer cell lines
  inhibited cell growth: approximately 60%

## CC[C@@]1(O)C(=O)OCc2c1cc1n(c2=O)Cc2cc3ccccc3nc2-1 [Camptothecin, reference compound]
Breast cancer cell lines
  concentration of cell death / greatest inhibition, positive controls: 7.81 ppm
[1]; 1.2, 6.0, 30.0 ppm, 24 h
  early stage apoptosis, FITC (+)/PI (−) staining, significance: significantly increased
[1]; all doses
  early apoptosis activity increased over the spirocyclic lignans: at least 5%
Cell line MD-MBA-231
  % events in sub G0 (apoptotic events): increased and significantly induced apoptotic activity at 30.0 ppm
  effect on cell population in G2/M: remained at levels with untreated cells at all doses
  effect on cell populations in S-phase, significance: significant at 6.0 and 30.0 ppm
  singlet count: reached minimal levels at 30 ppm
